{"source": "paper PMC10531095", "about": "“Photonics of Some Monomethine Cyanine Dyes in Solutions and in Complexes with Biomolecules” (International Journal of Molecular Sciences, 2023)", "key": {"dsDNA [1]": {"test_system": "dsDNA", "experiment": "Spectral fluorescent titration of the dyes with dsDNA in PBS", "assay_type": "binding, chick", "conditions": "for Ifl/Ifl0, relative increase in the fluorescence intensity: cdsDNA = 1 × 10^−4 mol L^−1; for φfl^b, fluorescence quantum yield of the dye in the presence of biopolymer: cdsDNA~5 × 10^−5 mol L^−1; for KeffHill, effective complexation constant (Hill) / KeffBH, effective complexation constant (Benesi–Hildebrand): PBS buffer; for KeffBH, effective complexation constant (Benesi–Hildebrand): fluorescent titration; for αb, proportion of bound dye: cbiomol = 5 × 10^−5 mol L^−1; for K2Sc, complexation constant (Scatchard): constant and nSc both varied; for Fmax/F0, fluorescence growth at 100% binding: from the Benesi–Hildebrand dependence; for K1Sc, complexation constant (Scatchard): nSc = const = 10 b.p.", "text": "Complexation of MCD 1–4 with DNA (double-stranded and single-stranded) and with human serum albumin (HSA) was studied by spectral fluorescent methods in a wide range of biopolymer concentrations (cdsDNA = 0–1.5 × 10^−4 mol L^−1; cssDNA = 0–1.4 × 10^−4 mol L^−1; cHSA = 0–1.4 × 10^−4 mol L^−1 in PBS buffer). The absorption, fluorescence, and fluorescence excitation spectra of MCD 1 and 3 in the presence of dsDNA are shown in Figure 3 and Figure 4, respectively.\nThe complication of chemical equilibrium, and the variety of interactions between MCD and biopolymer (dye aggregation/deaggregation, the possibility of forming complexes of several types with DNA/HSA) makes it problematic to determine the exact values of the complexation constants of the dyes with DNA. The values of the effective equilibrium constants of the complexation reaction of MCD with biopolymers (Keff, L mol^−1, see Table 7) were estimated from spectral fluorescent data. In this case, we had to assume a simple equilibrium MCD (monomer, free) ⇄ MCD (monomer, bound). For these purposes, we used the Benesi–Hildebrand [59], Hill, and Scatchard formalisms (See Supplementary Materials, Equations (S9)–(S13)). For dsDNA, fitting according to the modified Scatchard equation was carried out assuming one dye molecule per one DNA turn (K1Sc at nSc = const = 10 b.p.), as well as varying both the constant (K2Sc) and the stoichiometric coefficient (nSc). In the case of ssDNA, nSc is given per one base; for HSA, nSc = 1.\n(§1) Single-stranded form of DNA (single-stranded DNA; ssDNA) was obtained according to the method described in [74]. The concentrations of DNA and the dyes were controlled spectrophotometrically. Molar extinction coefficient of dsDNA (ε, L⋅mol^−1⋅cm^−1) was taken to be 13,200 L mol^−1 cm^−1 (per base pair); for ssDNA, ε = 9045 L mol^−1 cm^−1 (per one base) was used. For MCD 1 and 2 in an aqueous buffer solution, we used extinction coefficients ε = 40,000 and 68,000 L mol^−1 cm^−1, respectively, which were taken from. For MCD 3 and 4, the molar extinction coefficients in ethanol solution were 69,200 and 49,000 L mol^−1 cm^−1 (taken from). […] Spectral fluorescent characteristics of MCD in complexes with biomacromolecules were studied by titration of dye solutions (see Supplementary Materials). The thermal dissociation (“melting”) of dsDNA in the presence of MCD was studied spectrophotometrically (λabs = 260 nm), the sample was heated (t° = 30–95 °C) using Peltier cells, and the temperature was controlled using a thermocouple. Melting points tm, corresponding to 50% hyperchromia of DNA samples were obtained.\nAbsorption spectra were recorded on an SF-2000 spectrophotometer (Experimental-Construction Company “Spectrum”, St. Petersburg, Russia); fluorescence and fluorescence excitation spectra were recorded on a Fluorat-02-Panorama spectrofluorimeter (Group of Companies “Lumex”, St. Petersburg, Russia). The fluorescence and fluorescence excitation spectra were corrected for the spectral characteristics of the instrument (excitation channel signal) and sample transmission. Changes in the intrinsic fluorescence of HSA upon binding of MCD (in the presence of the dyes) were recorded in the synchronous fluorescence scanning (SFS) mode. In SFS mode, when registering spectra, a fixed difference Δλ= λfl − λex is maintained for the channels of excitation and registration. Synchronous scanning spectra were obtained at Δλ = 15 nm (fluorescence of tyrosine residues in the HSA molecule) and Δλ = 60 nm (fluorescence of tryptophan). The spectra were measured in 1 cm quartz semi-micro cells (Bio-Rad, Hercules, CA, USA).\nThe equilibrium constants of MCD complexation with biomolecules (Ka, L mol^−1) were obtained from fluorescence spectra using the Benesi–Hildebrand [59], Hill, and Scatchard equations [61] (see Supplementary Materials, Equations (S9)–(S13)). […]"}, "dsDNA [2]": {"test_system": "dsDNA", "experiment": "Thermal dissociation (melting) of dsDNA in the presence of MCD", "assay_type": "binding, chick", "conditions": "cdsDNA~6 × 10^−5 mol L^−1, cMCD~6 × 10^−6 mol L^−1; for Tm(dsDNA), melting point of dsDNA in the presence of MCD: without cyanines 80 °C", "text": "It is known that noncovalent ligand–dsDNA interactions upon the intercalative type of binding lead to additional stabilization of the biopolymer, which is reflected in an increase in the temperature range of thermal dissociation of the DNA double helix. From the data on the thermal dissociation of dsDNA, it is easy to obtain the melting point Tm(dsDNA) (at which 50% dsDNA is denatured). Note that Tm(dsDNA) depends on its GC composition, molecular length, and degree of strand complementarity; long duplexes with fewer base mismatches will have higher Tm(dsDNA) than short duplexes with more mismatches.\nMelting of the DNA double helix was measured spectrophotometrically at t = […], the normalized temperature dependences of the absorbances of the samples at λabs = 260 nm are shown in Figure 8.\nas §1"}, "[3]": {"conditions": "cdsDNA = 1 × 10^−4 mol L^−1, compared to the initial spectra in PBS"}}, "data": [{"smiles": "CCN1/C(=C/c2sc3ccccc3[n+]2CC)Sc2ccccc21", "note": "[MCD 3]", "values": [{"measurement": "Ifl/Ifl0, relative increase in the fluorescence intensity", "setting": "dsDNA [1]", "value": 79, "unit": "times"}, {"measurement": "hypochromia of the absorption band", "setting": "dsDNA [1]; [3]", "value": 44, "unit": "%"}, {"measurement": "φfl^b, fluorescence quantum yield of the dye in the presence of biopolymer", "setting": "dsDNA [1]", "value": "4.8 ± 0.5", "unit": "%"}, {"measurement": "LOD", "setting": "dsDNA [1]; detection of dsDNA", "value": 41, "unit": "nM"}, {"measurement": "nHill, Hill coefficient", "setting": "dsDNA [1]; dsDNA", "value": 0.88}, {"measurement": "nSc, stoichiometric coefficient (Scatchard)", "setting": "dsDNA [1]; dsDNA", "value": 35}, {"measurement": "KeffHill, effective complexation constant (Hill)", "setting": "dsDNA [1]; dsDNA", "value": 6900, "unit": "L/mol"}, {"measurement": "KeffBH, effective complexation constant (Benesi–Hildebrand)", "setting": "dsDNA [1]; dsDNA", "value": 13500, "unit": "L/mol"}, {"measurement": "αb, proportion of bound dye", "setting": "dsDNA [1]; dsDNA", "value": 40, "unit": "%"}, {"measurement": "K2Sc, complexation constant (Scatchard)", "setting": "dsDNA [1]; dsDNA", "value": 480000, "unit": "L/mol"}, {"measurement": "Fmax/F0, fluorescence growth at 100% binding", "setting": "dsDNA [1]; dsDNA", "value": 136}, {"measurement": "K1Sc, complexation constant (Scatchard)", "setting": "dsDNA [1]; dsDNA", "value": 135000, "unit": "L/mol"}, {"measurement": "LOQ", "setting": "dsDNA [1]; quantification of dsDNA", "value": 126, "unit": "nM"}, {"measurement": "growth of Tm(dsDNA)", "setting": "dsDNA [2]", "value": "2–3 °C"}, {"measurement": "Tm(dsDNA), melting point of dsDNA in the presence of MCD", "setting": "dsDNA [2]", "value": 82, "unit": "°C"}]}, {"smiles": "CCN1/C(=C/c2ccc3ccccc3[n+]2CC)C=Cc2ccccc21", "note": "[MCD 4]", "values": [{"measurement": "Ifl/Ifl0, relative increase in the fluorescence intensity", "setting": "dsDNA [1]", "value": 115, "unit": "times"}, {"measurement": "hypochromia of the absorption band", "setting": "dsDNA [1]; [3]", "value": 36, "unit": "%"}, {"measurement": "φfl^b, fluorescence quantum yield of the dye in the presence of biopolymer", "setting": "dsDNA [1]", "value": "~1.5 ± 0.2", "unit": "%"}, {"measurement": "LOD", "setting": "dsDNA [1]; detection of dsDNA", "value": 94, "unit": "nM"}, {"measurement": "nHill, Hill coefficient", "setting": "dsDNA [1]; dsDNA", "value": 0.62}, {"measurement": "nSc, stoichiometric coefficient (Scatchard)", "setting": "dsDNA [1]; dsDNA", "value": 2}, {"measurement": "KeffHill, effective complexation constant (Hill)", "setting": "dsDNA [1]; dsDNA", "value": 1850, "unit": "L/mol"}, {"measurement": "KeffBH, effective complexation constant (Benesi–Hildebrand)", "setting": "dsDNA [1]; dsDNA", "value": 19500, "unit": "L/mol"}, {"measurement": "αb, proportion of bound dye", "setting": "dsDNA [1]; dsDNA", "value": 46, "unit": "%"}, {"measurement": "K2Sc, complexation constant (Scatchard)", "setting": "dsDNA [1]; dsDNA", "value": 37000, "unit": "L/mol"}, {"measurement": "Fmax/F0, fluorescence growth at 100% binding", "setting": "dsDNA [1]; dsDNA", "value": 169}, {"measurement": "K1Sc, complexation constant (Scatchard)", "setting": "dsDNA [1]; dsDNA", "value": 186000, "unit": "L/mol"}, {"measurement": "LOQ", "setting": "dsDNA [1]; quantification of dsDNA", "value": 210, "unit": "nM"}, {"measurement": "growth of Tm(dsDNA)", "setting": "dsDNA [2]", "value": "2–3 °C"}, {"measurement": "Tm(dsDNA), melting point of dsDNA in the presence of MCD", "setting": "dsDNA [2]", "value": 83, "unit": "°C"}]}, {"smiles": "CC[N+](CC)(CC)CCC[n+]1ccc(/C=C2\\Sc3ccccc3N2C)c2ccc(O)cc21", "note": "[MCD 1]", "values": [{"measurement": "Ifl/Ifl0, relative increase in the fluorescence intensity", "setting": "dsDNA [1]", "value": "about 425 times"}, {"measurement": "φfl^b, fluorescence quantum yield of the dye in the presence of biopolymer", "setting": "dsDNA [1]", "value": "13 ± 1.5", "unit": "%"}, {"measurement": "LOD", "setting": "dsDNA [1]; detection of dsDNA", "value": 7.2, "unit": "nM"}, {"measurement": "LOD", "setting": "dsDNA [1]; dsDNA", "value": "about 10^−8 mol L^−1"}, {"measurement": "LOQ", "setting": "dsDNA [1]; dsDNA", "value": "about 10^−8 mol L^−1"}, {"measurement": "nHill, Hill coefficient", "setting": "dsDNA [1]; dsDNA", "value": 1.04}, {"measurement": "nSc, stoichiometric coefficient (Scatchard)", "setting": "dsDNA [1]; dsDNA", "value": 2}, {"measurement": "KeffHill, effective complexation constant (Hill)", "setting": "dsDNA [1]; dsDNA", "value": 53400, "unit": "L/mol"}, {"measurement": "KeffBH, effective complexation constant (Benesi–Hildebrand)", "setting": "dsDNA [1]; dsDNA", "value": 54000, "unit": "L/mol"}, {"measurement": "αb, proportion of bound dye", "setting": "dsDNA [1]; dsDNA", "value": "~80", "unit": "%"}, {"measurement": "αb, proportion of bound dye", "setting": "dsDNA [1]; dsDNA, listed as 1", "value": 80, "unit": "%"}, {"measurement": "K2Sc, complexation constant (Scatchard)", "setting": "dsDNA [1]; dsDNA", "value": 169000, "unit": "L/mol"}, {"measurement": "Fmax/F0, fluorescence growth at 100% binding", "setting": "dsDNA [1]; dsDNA", "value": 460}, {"measurement": "K1Sc, complexation constant (Scatchard)", "setting": "dsDNA [1]; dsDNA", "value": 793000, "unit": "L/mol"}, {"measurement": "hypochromia of the absorption band", "setting": "dsDNA [1]; high concentrations of dsDNA", "value": 8, "unit": "%"}, {"measurement": "LOQ", "setting": "dsDNA [1]; quantification of dsDNA", "value": 21, "unit": "nM"}, {"measurement": "Tm(dsDNA), melting point of dsDNA in the presence of MCD", "setting": "dsDNA [2]", "value": "85–86 °C"}]}]}
